Reference: PMC12439480, “Dimeric CCK2R radiotheranostic tracers synergize with mTOR inhibition for enhanced tumor therapy” (Theranostics, 2025)
Numbered stars: 1 amine (or outer) side, 2 acyl side, 3 side chain; on linkers, the order of the positions; unused ones are H or OH. Square brackets hold non-standard residues; d marks the D form. Peptide text beside a SMILES is read from it. * marks the point of attachment. DOTA = O=C(O)CN1CCN(CC(=O)O)CCN(CC(=O)*)CCN(CC(=O)O)CC1; d(γGlu) = O=C(O)[C@@H](CCC(=O)[*:2])N[*:1]; 1Nal = N[C@@H](Cc1cccc2ccccc12)C(=O)O; NMeNle = CCCC[C@H](NC)C(=O)O; PEG4 = NCCOCCOCCOCCOCCC(=O)O

Assay: in vivo
Parameters: species or system BALB/c nude mice
Conditions: mouse; for tissue to tissue ratio at 0.5 h / tissue to tissue ratio at 1 h / tissue to tissue ratio at 2 h: female, BALB/c nude, iv, 3.7 MBq, total radioactivity
Method: To complement the imaging studies, biodistribution experiments were performed. AR42J tumor-bearing mice were intravenously injected with 3.7 MBq of [^68Ga]Ga-DOTA-CCK2R-dimer (≈ 120 pmol) or [^68Ga]Ga-DOTA-CCK-66 (≈ 210 pmol) (dissolved in 200 μL of saline; n = 3/group). The mice were sacrificed at 30, 60, and 120 min post-injection, and the tissues of interest were excised, weighed, and analyzed for radioactivity using a γ-counter. For blocking studies, a 400-fold excess of the lead compound was co-administered, and the mice were sacrificed at 1 h post-injection.
All animal studies were approved by the Ethics Committee of Fudan University
Shanghai Cancer Center (No. FUSCC-IACUC- S2023- 0003). Five-week-old female
BALB/c nude mice were purchased from Shanghai SLAC Laboratory Animal
Company. To establish cell-derived xenograft (CDX) models, 1 × 10⁶ AR42J cells
(100 μL) were subcutaneously inoculated into the right shoulder of each mouse. […]

[1] = Tumor-to-Large intestine ratio (T/B)
[2] = Tumor-to-Small intestine ratio (T/B)

## CCCC[C@@H](C(=O)N[C@@H](CC(=O)O)C(=O)N[C@@H](Cc1cccc2ccccc12)C(N)=O)N(C)C(=O)[C@H](Cc1c[nH]c2ccccc12)NC(=O)CCOCCOCCOCCOCCNC(=O)CC[C@@H](NC(=O)CN1CCN(CC(=O)O)CCN(CC(=O)O)CCN(CC(=O)O)CC1)C(=O)O [[68Ga]Ga-DOTA-CCK-66, metal not drawn, reference compound] ({DOTA-d(γGlu)-PEG4}-W[NMeNle]D[1Nal]-NH2)
Tumor-to-Bladder ratio (T/B)
  tissue to tissue ratio at 0.5 h: 1.95 ± 0.96
  tissue to tissue ratio at 1 h: 4.41 ± 1.16
  tissue to tissue ratio at 2 h: 7.5 ± 2.91
Tumor-to-Blood ratio (T/B)
  tissue to tissue ratio at 0.5 h: 2.48 ± 0.27
  tissue to tissue ratio at 1 h: 6.36 ± 1.3
  tissue to tissue ratio at 2 h: 18.1 ± 14.9
Tumor-to-Bone ratio (T/B)
  tissue to tissue ratio at 0.5 h: 29.9 ± 14.1
  tissue to tissue ratio at 1 h: 34.9 ± 29.4
  tissue to tissue ratio at 2 h: 98 ± 19.9
Tumor-to-Brain ratio (T/B)
  tissue to tissue ratio at 0.5 h: 72.8 ± 22.6
  tissue to tissue ratio at 1 h: 91.4 ± 5.94
  tissue to tissue ratio at 2 h: 141 ± 66.3
Tumor-to-Heart ratio (T/B)
  tissue to tissue ratio at 0.5 h: 10.9 ± 1.72
  tissue to tissue ratio at 1 h: 8.93 ± 4.2
  tissue to tissue ratio at 2 h: 33.2 ± 30.2
Tumor-to-Kidney ratio (T/B)
  tissue to tissue ratio at 0.5 h: 1.8 ± 0.2
  tissue to tissue ratio at 1 h: 1.1 ± 0.47
  tissue to tissue ratio at 2 h: 1.67 ± 0.79
[1]
  tissue to tissue ratio at 0.5 h: 5.91 ± 1.81
  tissue to tissue ratio at 1 h: 13.3 ± 6.96
  tissue to tissue ratio at 2 h: 26.2 ± 5.5
Tumor-to-Liver ratio (T/B)
  tissue to tissue ratio at 0.5 h: 4.12 ± 0.63
  tissue to tissue ratio at 1 h: 4.3 ± 0.38
  tissue to tissue ratio at 2 h: 13.2 ± 7.75
Tumor-to-Lung ratio (T/B)
  tissue to tissue ratio at 0.5 h: 3.22 ± 0.56
  tissue to tissue ratio at 1 h: 7.32 ± 5.81
  tissue to tissue ratio at 2 h: 11.7 ± 2.81
Tumor-to-Muscle ratio (T/M)
  tissue to tissue ratio at 0.5 h: 6.69 ± 2.78
  tissue to tissue ratio at 1 h: 10.2 ± 1.41
  tissue to tissue ratio at 2 h: 15.2 ± 6.94
[2]
  tissue to tissue ratio at 0.5 h: 5.83 ± 2.57
  tissue to tissue ratio at 1 h: 7.43 ± 1.49
  tissue to tissue ratio at 2 h: 25.7 ± 17.9
Tumor-to-Spleen ratio (T/B)
  tissue to tissue ratio at 0.5 h: 4.46 ± 1.21
  tissue to tissue ratio at 1 h: 7 ± 2.74
  tissue to tissue ratio at 2 h: 24.9 ± 10.9
Tumor-to-Stomach ratio (T/B)
  tissue to tissue ratio at 0.5 h: 4.5 ± 1.83
  tissue to tissue ratio at 1 h: 5.06 ± 2.32
  tissue to tissue ratio at 2 h: 6 ± 1.93
Bladder uptake
  tissue uptake at 0.5 h: 1.9 ± 1.13 %ID/g
  tissue uptake at 1 h: 1.59 ± 0.47 %ID/g
  tissue uptake at 2 h: 1.37 ± 0.43 %ID/g
Blood uptake
  tissue uptake at 0.5 h: 1.22 ± 0.15 %ID/g
  tissue uptake at 2 h: 0.69 ± 0.3 %ID/g
Bone uptake
  tissue uptake at 0.5 h: 0.12 ± 0.05 %ID/g
  tissue uptake at 2 h: 0.1 ± 0.04 %ID/g
Brain uptake
  tissue uptake at 0.5 h: 0.03 ± 0.01 %ID/g
  tissue uptake at 2 h: 0.07 ± 0.01 %ID/g
Heart uptake
  tissue uptake at 0.5 h: 0.28 ± 0.04 %ID/g
  tissue uptake at 2 h: 0.48 ± 0.31 %ID/g
Kidney uptake
  tissue uptake at 0.5 h: 1.68 ± 0.19 %ID/g
  tissue uptake at 1 h: 7.52 ± 1.95 %ID/g
  tissue uptake at 2 h: 6.4 ± 2.54 %ID/g
Large intestine uptake
  tissue uptake at 0.5 h: 0.55 ± 0.19 %ID/g
  tissue uptake at 2 h: 0.37 ± 0.06 %ID/g
Liver uptake
  tissue uptake at 0.5 h: 0.74 ± 0.1 %ID/g
  tissue uptake at 1 h: 1.57 ± 0.22 %ID/g
  tissue uptake at 2 h: 0.54 ± 0.17 %ID/g
Lung uptake
  tissue uptake at 0.5 h: 0.95 ± 0.14 %ID/g
  tissue uptake at 1 h: 1.25 ± 0.6 %ID/g
  tissue uptake at 2 h: 0.87 ± 0.31 %ID/g
Muscle uptake
  tissue uptake at 0.5 h: 0.52 ± 0.27 %ID/g
  tissue uptake at 2 h: 0.72 ± 0.36 %ID/g
Small intestine uptake
  tissue uptake at 0.5 h: 0.57 ± 0.21 %ID/g
  tissue uptake at 2 h: 0.5 ± 0.27 %ID/g
Spleen uptake
  tissue uptake at 0.5 h: 0.71 ± 0.2 %ID/g
  tissue uptake at 2 h: 0.45 ± 0.23 %ID/g
Stomach uptake
  tissue uptake at 0.5 h: 0.74 ± 0.27 %ID/g
  tissue uptake at 2 h: 1.63 ± 0.27 %ID/g
Tumor uptake
  tissue uptake at 0.5 h: 3 ± 0.63 %ID/g
  tissue uptake at 2 h: 9.53 ± 2.38 %ID/g
